According to article PMC11943355, “Identification of a Novel Antagonist of BRS-3 from Natural Products and Its Protective Effects Against H2O2-Induced Cardiomyocyte Injury” (International Journal of Molecular Sciences, 2025):

Experiments:
Assay type in all cases: cell-based
[1] = molecular target: T1, BRS-3 (bombesin receptor subtype-3, BB3), murine (Mus musculus, UniProt O54798); experiment: reference peptide antagonist; inhibition of […] MK-5046-induced Ca2+ mobilization (FLIPR) in HEK293-mBRS-3 stable cells
T1 construct: gene Brs3
T1 sequence (O54798 1-399): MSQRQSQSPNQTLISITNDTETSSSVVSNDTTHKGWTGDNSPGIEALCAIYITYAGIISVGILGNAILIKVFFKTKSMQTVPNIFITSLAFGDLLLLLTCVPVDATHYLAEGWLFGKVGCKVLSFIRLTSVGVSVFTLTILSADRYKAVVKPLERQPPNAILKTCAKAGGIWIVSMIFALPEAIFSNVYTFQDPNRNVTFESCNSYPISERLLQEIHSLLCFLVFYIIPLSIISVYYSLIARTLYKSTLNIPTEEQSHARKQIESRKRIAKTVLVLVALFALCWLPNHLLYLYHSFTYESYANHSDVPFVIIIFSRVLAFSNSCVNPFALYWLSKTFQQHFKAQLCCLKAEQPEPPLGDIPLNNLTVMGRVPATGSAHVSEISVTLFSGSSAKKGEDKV

[2] = molecular target: T1, BRS-3 (bombesin receptor subtype-3, BB3), murine; experiment: inhibition of […] MK-5046-induced Ca2+ mobilization (FLIPR) in HEK293-mBRS-3 stable cells; also DMR (IC50 […])
[3] = molecular target: T2, BRS-3 (bombesin receptor subtype-3, BB3), human (Homo sapiens, UniProt P32247); experiment: inhibition of […] MK-5046-induced IP1 accumulation (HTRF) in H1299-hBRS-3 stable cells
T2 construct: gene BRS3
T2 sequence (P32247 1-399): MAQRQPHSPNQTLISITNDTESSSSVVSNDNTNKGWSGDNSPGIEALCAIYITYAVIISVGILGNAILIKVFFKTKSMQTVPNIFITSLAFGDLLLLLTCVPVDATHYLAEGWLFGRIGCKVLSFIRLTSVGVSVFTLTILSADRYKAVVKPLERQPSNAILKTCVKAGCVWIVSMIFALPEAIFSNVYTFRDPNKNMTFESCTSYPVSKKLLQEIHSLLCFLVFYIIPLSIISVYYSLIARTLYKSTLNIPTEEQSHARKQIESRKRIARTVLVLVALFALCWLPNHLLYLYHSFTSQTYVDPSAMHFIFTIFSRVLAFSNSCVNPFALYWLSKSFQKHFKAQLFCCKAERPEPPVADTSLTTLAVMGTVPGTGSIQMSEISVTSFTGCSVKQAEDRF

IC50 [2]	IC50 [3]	Compound	IC50 [1]
		Bantag-1	2.32 nM
706 nM	841 nM	CC(C)=CCc1c(O)ccc(-c2coc3cc(O)cc(O)c3c2=O)c1O [LIA, licoisoflavone A]	
